Test results taken from patent US20150374673A1, “Combination Therapy for the Treatment of Nosocomial Pneumonia” (priority 2013, published 2015).
Where two headings read alike, the source gives them in different places.

Assays:
Type in all cases: cell-based
[1] = test system: all isolates (Enterobacteriaceae, P. aeruginosa, S. aureus, E. faecalis); assay: Checkerboard assay, mean FICI over all isolates
Method: All MIC determinations including those performed in the checkerboard assay were done in cation-adjusted Mueller-Hinton broth (purchased from Becton Dickinson, Oxford UK).
Initial MIC data were determined by microbroth dilution methods as recommended by CLSI (2012b). Checkerboards were made in accordance with the method given by Pillai et. al., ? Antimicrobial Combinations in Antibiotics, LABORATORY MEDICINE (Lorian Ed., 3rd Ed. (2003)) p. 365-440 as per standard microbroth dilution tests but with agents in combination. […] A final avibactam concentration of 4 mg/L was used throughout the study. Antibacterial agents were combined into microtitre plates using the Evolution III liquid handling system.
Checkerboard plates were inoculated and incubated in accordance with CLSI guidelines (2012b) at 35±2° C. in ambient air for 16-20 h. MICs were recorded the following day as the lowest concentration or combination of concentrations required to inhibit all visible growth. From the MIC data, FICIs were calculated for each checkerboard according to the method of Meletiadis et. al., Defining Fractional Inhibitory Concentration Index Cutoffs for Additive Interactions Based on Self-Drug Additive Combinations, Monte Carlo Simulation Analysis and in vitro-in vivo Correlation Data for Antifungal Drug Combinations Against Aspergillus fumigatus, AAC 54:602-09 (2010).
FICI=FICA+FICB=(CA/MICA)+(CB/MICB)
As each checkerboard gives a number of FICI values, an arithmetic mean is calculated from all values to give the mean FICI for two agents combined against one isolate. Mean FICIs were interpreted by the following criteria given by Odds (2003) which are now the accepted criteria by most journals: […]

E. coli = assay: Initial MIC, microbroth dilution (CLSI), avibactam 4 mg/L; conditions: Escherichia coli, read-out: MIC
From the text: (§1) All MIC determinations including those performed in the checkerboard assay were done in cation-adjusted Mueller-Hinton broth (purchased from Becton Dickinson, Oxford UK). […]

S. aureus = assay: as above; conditions: Staphylococcus aureus, read-out: MIC
From the text: as §1

E. cloacae = assay: as above; conditions: Enterobacter cloacae
From the text: as §1

E. faecalis = assay: as above
From the text: as §1

P. aeruginosa = assay: MIC of the P. aeruginosa isolates used in the in vivo efficacy studies; conditions: Pseudomonas aeruginosa
[2] = with Col, Gram-negative isolates
[3] = with Lzd, Gram-positive isolates
[4] = with Van, Gram-positive isolates

With CC(C)(O/N=C(\C(=O)N[C@@H]1C(=O)N2C(C(=O)[O-])=C(C[n+]3ccccc3)CS[C@H]12)c1csc(N)n1)C(=O)O [ceftazidime, (6R,7R)-7-[[(2Z)-2-(2-amino-1,3-thiazol-4-yl)-2-(1-hydroxy-2-methyl-1-oxopropan-2-yl)oxyiminoacetyl]amino]-8-oxo-3-(pyridin-1-ium-1-ylmethyl)-5-thia-1-azabicyclo[4.2.0]oct-2-ene-2-carboxylate pentahydrate] as the molecule, how does the “interaction, synergistic or antagonistic, with any other antibacterial agent” value ([1]; tobramycin, levofloxacin, vancomycin, linezolid, tigecycline, colistin) read?
Its value is “No interaction”.

And the “Mean FICI range high” value [1, 2]?
The value was 1.66.

And the “Mean FICI range low” value [1, 2]?
Its value is 0.85.

And the “Mean FICI range high” value ([1]; with Lev, all isolates)?
The value was 1.33.

And the “Mean FICI range low” value ([1]; with Lev, all isolates)?
The value was 0.78.

What about the “Mean FICI range high” value [1, 3] of the same molecule?
Its value is 1.64.

And the “Mean FICI range low” value [1, 3]?
Its value is 0.99.

And the “Mean FICI range high” value ([1]; with Tig, all isolates)?
Its value is 1.99.

And the “Mean FICI range low” value ([1]; with Tig, all isolates)?
The value was 0.73.

What about the “Mean FICI range high” value ([1]; with Tob, all isolates) of the same molecule?
Its value is 1.60.

And the “Mean FICI range low” value ([1]; with Tob, all isolates)?
Its value is 0.64.

What about the “Mean FICI range high” value [1, 4] of the same molecule?
Its value is 1.63.

What about the “Mean FICI range low” value [1, 4] of the same molecule?
Its value is 0.99.

What about the MIC (E. coli; isolate 5 E. coli CTX-M-15) of the same molecule?
Its MIC is 64 µg/mL.

And the MIC (E. coli; isolate 6 E. coli TEM-4)?
Its MIC is 8 µg/mL.

What about the MIC (E. coli; isolate 7 E. coli SHV-12) of the same molecule?
The MIC was 16 µg/mL.

What about the MIC (E. coli; isolate 8 E. coli SHV-2) of the same molecule?
The MIC was 1 µg/mL.

And the MIC (S. aureus; isolate 22 S. aureus Basal MICs)?
Its MIC is 8 µg/mL.

What about the MIC (S. aureus; isolate 23 S. aureus Basal MICs, Penicillinase+) of the same molecule?
The MIC was 16 µg/mL.

What about the MIC (S. aureus; isolate 24 S. aureus Basal MICs, Penicillinase+) of the same molecule?
The MIC was 8 µg/mL.

What about the MIC (E. cloacae; isolate 1 E. cloacae Basal MICs, read-out: MIC) of the same molecule?
Its MIC is 0.12 µg/mL.

And the MIC (E. cloacae; isolate 2 E. cloacae Derepressed AmpC)?
The MIC was 256 µg/mL.

What about the MIC (E. cloacae; isolate 3 E. cloacae Derepressed AmpC) of the same molecule?
The MIC was 128 µg/mL.

And the MIC (E. faecalis; Enterococcus faecalis)?
Its MIC is 256 µg/mL.

And the MIC (E. faecalis; Enterococcus faecalis, isolate 25 E. faecalis Basal MICs, read-out: MIC)?
The MIC was > 512 µg/mL.

What about the MIC (E. faecalis; isolate 27 E. faecalis Basal MICs) of the same molecule?
Its MIC is 256 µg/mL.

And the MIC (P. aeruginosa; P. aeruginosa PSA 1-25)?
The MIC was 128 µg/mL.

What about the MIC (P. aeruginosa; P. aeruginosa PSA 1-29) of the same molecule?
The MIC was 32 µg/mL.

What about the MIC (P. aeruginosa; P. aeruginosa PSA 2-69) of the same molecule?
The MIC was 64 µg/mL.

What about the MIC (P. aeruginosa; P. aeruginosa PSA 3-9) of the same molecule?
The MIC was > 128 µg/mL.

And the MIC (P. aeruginosa; P. aeruginosa PSA 4-32)?
Its MIC is 32 µg/mL.

And the MIC (P. aeruginosa; P. aeruginosa PSA 4-36)?
The MIC was 64 µg/mL.

And the MIC (P. aeruginosa; P. aeruginosa PSA 4-39)?
Its MIC is 32 µg/mL.

What about the MIC (P. aeruginosa; P. aeruginosa PSA 4-84) of the same molecule?
The MIC was 64 µg/mL.

And the MIC (P. aeruginosa; P. aeruginosa PSA 7-6)?
The MIC was 128 µg/mL.

And the MIC (P. aeruginosa; P. aeruginosa PSA 8-16)?
Its MIC is 64 µg/mL.

What about the MIC (P. aeruginosa; P. aeruginosa PSA 11-54) of the same molecule?
The MIC was 32 µg/mL.

What about the MIC (P. aeruginosa; P. aeruginosa PSA 14-28) of the same molecule?
The MIC was 128 µg/mL.

What about the MIC (P. aeruginosa; P. aeruginosa PSA 22) of the same molecule?
The MIC was 64 µg/mL.

And the MIC (P. aeruginosa; P. aeruginosa PSA 24-2)?
Its MIC is 32 µg/mL.

What about the MIC (P. aeruginosa; P. aeruginosa PSA 28-19) of the same molecule?
The MIC was 128 µg/mL.

What about the MIC (P. aeruginosa; P. aeruginosa PSA 37-8) of the same molecule?
Its MIC is 64 µg/mL.

And the MIC (P. aeruginosa; P. aeruginosa PSA 856)?
The MIC was 8 µg/mL.

And the MIC (P. aeruginosa; P. aeruginosa PSA 968)?
The MIC was 32 µg/mL.

And the MIC (P. aeruginosa; P. aeruginosa PSA 971)?
The MIC was 16 µg/mL.

And the MIC (P. aeruginosa; P. aeruginosa PSA 1382)?
Its MIC is 128 µg/mL.

And the MIC (P. aeruginosa; P. aeruginosa PSA 1383)?
The MIC was 64 µg/mL.

What about the MIC (P. aeruginosa; P. aeruginosa PSA 1384) of the same molecule?
Its MIC is 64 µg/mL.

What about the MIC (P. aeruginosa; P. aeruginosa PSA 1386) of the same molecule?
Its MIC is 128 µg/mL.

And the MIC (P. aeruginosa; P. aeruginosa PSA 1387)?
The MIC was 32 µg/mL.

And the MIC (P. aeruginosa; P. aeruginosa PSA 1388)?
The MIC was 128 µg/mL.

What about the MIC (P. aeruginosa; P. aeruginosa PSA 1389) of the same molecule?
The MIC was 64 µg/mL.

And the MIC (P. aeruginosa; P. aeruginosa PSA 1391)?
The MIC was 128 µg/mL.

And the MIC (P. aeruginosa; P. aeruginosa PSA 1394)?
Its MIC is 64 µg/mL.
